In the assay the target is FP receptor (Homo sapiens (Human), UniProt P43088). Briefly: In vitro test of inhibition of human FP receptor activity (PGF2α-induced calcium flux in FP-expressing CHEM1 cells). The class given is cell-based. To be noted: PGF2α 2 nM, some mean values of multiple determinations. As for the experimental part: B-1. In Vitro Test of Inhibition of Human FP Receptor Activity
For the characterization of test substances in respect of FP antagonism, PGF2α-induced calcium flux in FP-expressing CHEM1 cells (Millipore, HTS093C) was used.
10 μl of the prediluted substance solution are added to the Fluo-8-laden cells and incubated at 37° C., 5% CO2 for 10 minutes. The FP receptor is activated by adding 40 μl of 2 nM (final concentration) PGF2α in calcium-free Tyrode, 2 mM CaCl2, 0.002% SmartBlock, and the calcium flux is determined by measuring the fluorescence at ex. 470 nm/[…].
Table 1 below lists the IC50 values from this assay for individual working examples of the invention (some as mean values from multiple independent individual determinations): […]
A general note: Calcium flux is commonly read through the fluorescence of an indicator in the cells.

Sequence of FP receptor (P43088 whole entry): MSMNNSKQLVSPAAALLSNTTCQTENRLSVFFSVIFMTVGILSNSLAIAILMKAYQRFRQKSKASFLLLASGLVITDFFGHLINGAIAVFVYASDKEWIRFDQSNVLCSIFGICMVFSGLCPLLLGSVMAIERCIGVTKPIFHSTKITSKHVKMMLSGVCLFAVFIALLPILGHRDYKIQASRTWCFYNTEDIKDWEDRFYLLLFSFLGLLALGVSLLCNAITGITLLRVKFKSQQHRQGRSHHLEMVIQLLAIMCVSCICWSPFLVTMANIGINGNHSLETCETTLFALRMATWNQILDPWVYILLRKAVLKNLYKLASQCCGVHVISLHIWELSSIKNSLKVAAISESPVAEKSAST

As for `Cc1c(N2CCCCC2)nc2ccc(Br)cc2c1C(=O)NCC(CCC(=O)O)c1cc(F)ccc1F` (single isomer, unassigned; (+)) [Example 257, (+)-5-({[6-Bromo-3-methyl-2-(piperidin-1-yl)quinolin-4-yl]carbonyl}amino)-4-(2,5-difluorophenyl)pentanoic acid], the IC50 (commonly the concentration that inhibits the measured activity by half) stood at 15 nM.

Take `Cc1c(N2CCCC(F)(F)C2)nc2ccc(Br)cc2c1C(=O)NCC(CCC(=O)O)c1ccccc1OC(F)(F)F` (single isomer, unassigned; (+)) [Example 134, (+)-5-({[6-Bromo-2-(3,3-difluoropiperidin-1-yl)-3-methylquinolin-4-yl]carbonyl}amino)-4-[2-(trifluoromethoxy)phenyl]pentanoic acid]: the IC50 worked out at 4.9 nM.

Consider `Cc1c(N2CCCC2)nc2ccc(Br)cc2c1C(=O)NCC(CCC(=O)O)c1c(F)cccc1F` (racemic) [Example 247, (+/−)-5-({[6-Bromo-3-methyl-2-(pyrrolidin-1-yl)quinolin-4-yl]carbonyl}amino)-4-(2,6-difluorophenyl)pentanoic acid hydrogenformate], for which the IC50 amounted to 55 nM.

As for `Cc1c(N2CCCC(F)C2)nc2ccc(Br)cc2c1C(=O)NCC(CCC(=O)O)c1c(Cl)ccc(Cl)c1Cl` (single isomer, unassigned) [Example 221, 5-[({6-Bromo-2-[3-fluoropiperidin-1-yl]-3-methylquinolin-4-yl}carbonyl)amino]-4-(2,3,6-trichlorophenyl)pentanoic acid], the half-maximal inhibitory concentration (IC50) was 8.4 nM.

For the compound `Cc1ccc(F)cc1C(CCC(=O)O)CNC(=O)c1c(C)c(N2CCCCC2)nc2ccc(Br)cc12` (single isomer, unassigned; (+)) [Example 149, (+)-5-({[6-Bromo-3-methyl-2-(piperidin-1-yl)quinolin-4-yl]carbonyl}amino)-4-(5-fluoro-2-methylphenyl)pentanoic acid], the IC50 came to 13 nM.

Consider `Cc1c(N2CCCO2)nc2ccc(Br)cc2c1C(=O)NCC(CCC(=O)O)c1ccccc1Cl` (single isomer, unassigned; (-)) [Example 39, (−)-5-({[6-Bromo-3-methyl-2-(1,2-oxazolidin-2-yl)quinolin-4-yl]carbonyl}amino)-4-(2-chlorophenyl)pentanoic acid], for which the IC50 came to 24 nM.

For the compound `Cc1c(N2CCOC(C)C2)nc2ccc(Br)cc2c1C(=O)NCC(CCC(=O)O)c1ccccc1Cl` (stereo not drawn) [Example 89, 5-[({6-Bromo-3-methyl-2-[2-methylmorpholin-4-yl]quinolin-4-yl}carbonyl)amino]-4-(2-chlorophenyl)pentanoic acid], the IC50 was 350 nM.

Regarding `Cc1c(N2CCCC2)nc2ccc(Br)cc2c1C(=O)NCC(CCC(=O)O)c1ccccc1OC(F)(F)F` (racemic) [Example 129, (+/−)-5-({[6-Bromo-3-methyl-2-(pyrrolidin-1-yl)quinolin-4-yl]carbonyl}amino)-4-[2-(trifluoromethoxy)phenyl]pentanoic acid], the IC50 came out at 6.1 nM.

On to `[2H]C1([2H])N(c2nc3ccc(Br)cc3c(C(=O)NCC(CCC(=O)O)c3ccccc3OC(F)(F)F)c2C)C([2H])([2H])C([2H])([2H])C1([2H])[2H]` (single isomer, unassigned; (+)) [Example 279, (+)-5-[({6-Bromo-3-methyl-2-[(^2H8)pyrrolidin-1-yl]quinolin-4-yl}carbonyl)amino]-4-[2-(trifluoromethyl)phenyl]pentanoic acid], for which the IC50 was found to be 11 nM.

As to `Cc1c(N2CCCC(C)C2)nc2ccc(Br)cc2c1C(=O)NCC(CCC(=O)O)c1ccccc1Cl` (single isomer, unassigned; (-)) [Example 49, (−)-5-[({6-Bromo-3-methyl-2-[3-methylpiperidin-1-yl]quinolin-4-yl}carbonyl)amino]-4-(2-chlorophenyl)pentanoic acid], the IC50 was determined as 14 nM.

With `Cc1c(N2CCCC(F)(F)C2)nc2ccc(Br)cc2c1C(=O)NCC(CCC(=O)O)c1ccccc1C(F)(F)F` (single isomer, unassigned; (-)) [Example 118, (−)-5-({[6-Bromo-2-(3,3-difluoropiperidin-1-yl)-3-methylquinolin-4-yl]carbonyl}amino)-4-[2-(trifluoromethyl)phenyl]pentanoic acid], the half-maximal inhibitory concentration (IC50) was found to be 8.5 nM.

As for `Cc1c(N2CCCC(F)(F)C2)nc2ccc(Br)cc2c1C(=O)NCC(CCC(=O)O)c1c(F)cccc1F` (racemic) [Example 250, (+/−)-5-({[6-Bromo-2-(3,3-difluoropiperidin-1-yl)-3-methylquinolin-4-yl]carbonyl}amino)-4-(2,6-difluorophenyl)pentanoic acid], the concentration for half-maximal inhibition (IC50) was determined as 20 nM.

Regarding `CCC1CCCN(c2nc3ccc(Br)cc3c(C(=O)NCC(CCC(=O)O)c3ccccc3OC(F)(F)F)c2C)C1` (stereo not drawn) [Example 139, 5-[({6-Bromo-2-[3-ethylpiperidin-1-yl]-3-methylquinolin-4-yl}carbonyl)amino]-4-[2-(trifluoromethoxy)phenyl]pentanoic acid], the IC50 stood at 1.5 nM.

For the compound “(−)-5-[({6-Bromo-3-methyl-2-[(^2H10)piperidin-1-yl]quinolin-4-yl}carbonyl)amino]-4-[2-(trifluoromethoxy)phenyl]pentanoic acid [Example 272]”, the IC50 is 0.85 nM.

In the case of `COCC1CCCN(c2nc3ccc(Br)cc3c(C(=O)NCC(CCC(=O)O)c3ccccc3Cl)c2C)C1` (stereo not drawn) [Example 93, 5-[({6-Bromo-2-[3-(methoxymethyl)piperidin-1-yl]-3-methylquinolin-4-yl}carbonyl)amino]-4-(2-chlorophenyl)pentanoic acid], the IC50 is 80 nM.

Turning to `Cc1c(N2CCCCC2)nc2ccc(Br)cc2c1C(=O)NCC(CCC(=O)O)c1c(F)cccc1C(F)(F)F` (racemic) [Example 160, (+/−)-5-({[6-Bromo-3-methyl-2-(piperidin-1-yl)quinolin-4-yl]carbonyl}amino)-4-[2-fluoro-6-(trifluoromethyl)phenyl]pentanoic acid], the half-maximal inhibitory concentration (IC50) was determined as 5.3 nM.

For `Cc1c(N2CCCC(F)C2)nc2ccc(Br)cc2c1C(=O)NCC(CCC(=O)O)c1ccccc1OC(F)(F)F` (stereo not drawn) [Example 138, 5-[({6-Bromo-2-[3-fluoropiperidin-1-yl]-3-methylquinolin-4-yl}carbonyl)amino]-4-[2-(trifluoromethoxy)phenyl]pentanoic acid], the 50% inhibitory concentration (IC50) is 3 nM.

For the compound `Cc1c(N2CCSCC2)nc2ccc(Br)cc2c1C(=O)NCC(CCC(=O)O)c1ccccc1Cl` (single isomer, unassigned; (-)) [Example 27, (−)-5-({[6-Bromo-3-methyl-2-(thiomorpholin-4-yl)quinolin-4-yl]carbonyl}amino)-4-(2-chlorophenyl)pentanoic acid], the IC50 was determined as 14 nM.

`Cc1c(N2CCC(F)(F)C2)nc2ccc(Br)cc2c1C(=O)NCC(CCC(=O)O)c1ccccc1Cl` (racemic) [Example 37, (+/−)-5-({[6-Bromo-2-(3,3-difluoropyrrolidin-1-yl)-3-methylquinolin-4-yl]carbonyl}amino)-4-(2-chlorophenyl)pentanoic acid]: the IC50 amounted to 22 nM.

For the compound `Cc1c(NCC2CCCCC2)nc2ccc(Br)cc2c1C(=O)NCC(CCC(=O)O)c1ccccc1Cl` (racemic) [Example 99, (+/−)-5-[({6-Bromo-2-[(cyclohexylmethyl)amino]-3-methylquinolin-4-yl}carbonyl)amino]-4-(2-chlorophenyl)pentanoic acid], the IC50 was 500 nM.

On to `Cc1c(N2CCCC2)nc2ccc(Br)cc2c1C(=O)NCC(CCC(=O)O)c1c(Cl)ccc(Cl)c1Cl` (racemic) [Example 174, (+/−)-5-({[6-Bromo-3-methyl-2-(pyrrolidin-1-yl)quinolin-4-yl]carbonyl}amino)-4-(2,3,6-trichlorophenyl)pentanoic acid], for which the IC50 was 11 nM.

In the case of `Cc1c(N2CCCC(F)(F)C2)nc2ccc(Br)cc2c1C(=O)NCC(CCC(=O)O)c1c(F)cccc1F` (single isomer, unassigned; (+)) [Example 251, (+)-5-({[6-Bromo-2-(3,3-difluoropiperidin-1-yl)-3-methylquinolin-4-yl]carbonyl}amino)-4-(2,6-difluorophenyl)pentanoic acid], the half-maximal inhibitory concentration (IC50) was 72 nM.

In the case of `Cc1c(N2CCCC(F)C2)nc2ccc(Br)cc2c1C(=O)NCC(CCC(=O)O)c1ccccc1OC(F)(F)F` (single isomer, unassigned; (+)) [Example 203, (+)-5-[({6-Bromo-2-[3-fluoropiperidin-1-yl]-3-methylquinolin-4-yl}carbonyl)amino]-4-[2-(trifluoromethoxy)phenyl]pentanoic acid], the IC50 came out at 11 nM.

Turning to `CCC1CCCN(c2nc3ccc(Br)cc3c(C(=O)NCC(CCC(=O)O)c3ccccc3C(F)(F)F)c2C)C1` (single isomer, unassigned; (-)) [Example 194, (−)-5-[({6-Bromo-2-[3-ethylpiperidin-1-yl]-3-methylquinolin-4-yl}carbonyl)amino]-4-[2-(trifluoromethyl)phenyl]pentanoic acid], the half-maximal inhibitory concentration (IC50) was 11 nM.

As for `Cc1c(N2CC[C@@H](F)C2)nc2ccc(Br)cc2c1C(=O)NCC(CCC(=O)O)c1ccccc1Cl` (single isomer, unassigned; (+)) [Example 68], the IC50 was 14 nM.

Consider `Cc1c(N2CC=CCC2)nc2ccc(Br)cc2c1C(=O)NCC(CCC(=O)O)c1cc(F)ccc1Cl` (racemic) [Example 10, (+/−)-5-({[6-Bromo-2-(3,6-dihydropyridin-1(2H)-yl)-3-methylquinolin-4-yl]carbonyl}amino)-4-(2-chloro-5-fluorophenyl)pentanoic acid], for which the concentration for half-maximal inhibition (IC50) is 36 nM.

On to `Cc1c(N2CCCCC2)nc2ccc(Br)cc2c1C(=O)NCC(CC(=O)O)c1c(F)cccc1Cl` (single isomer, unassigned; (+)) [Example 3, (+)-4-({[6-Bromo-3-methyl-2-(piperidin-1-yl)quinolin-4-yl]carbonyl}amino)-3-(2-chloro-6-fluorophenyl)butanoic acid], for which the IC50 was 92 nM.
